Reference: patent publication US10035806B2, “Derivatized corroles and metallocorroles and their use as imaging and therapeutic agents” (CALIFORNIA INSTITUTE OF TECHNOLOGY, priority 2015, dated 2018)

Key:
Assay in all cases: NCI60 anticancer drug screen
Type in all cases: cell-based, human
NCl/ADR-RES = NCl/ADR-RES (Ovarian Cancer), 10 μM, 48 h
Source text: (§1) The aminocaproate-substituted corrole Complex 3 was submitted to NCI for cytotoxic screening at a single high dose (10−5M) in a panel of 60 human tumor cell lines (NCI60). Details of the cytotoxicity assessment in the NCI anticancer drug screen have been described previously, in Monks A, et al. (1991) Feasibility of a high-flux anticancer drug screen using a diverse panel of cultured human tumor cell lines. J Natl Cancer Inst 83(11):757-766, this reference being incorporated by reference for these teachings.
(§2) In view of the promising results observed for carboxylated corroles, Complex 3 was selected for expanded cell screening to uncover additional susceptible cancer cell lines. The cytotoxic activity of Complex 3 was tested at a dose of 10^−5 M against 60 human cancer cell lines representing nine distinct tumor types in the anticancer screening program of the National Cancer Institute (NCI). The in vitro parameters for cytotoxicity, growth percent, and lethality were obtained for Complex 3 and reported as a mean graph of the percent growth of treated cells (FIG. 7). Bars in the mean graph depict the deviation of individual tumor cell lines from the overall mean value for all cells tested. Bars that project to the right of the mean represent cell lines that are more sensitive to Complex 3, whereas cell lines less sensitive to the compound display bars that project to the left.
(§3) The numerical values associated with this assay represent growth relative to the no-drug control and the numbers of cells at time 0 (FIG. 7). This allows detection of both growth inhibition (values between 0 and 100) and lethality (values less than 0). For example, a value of 100 signifies no growth inhibition, 40 means 60% growth inhibition, 0 means no net growth over the course of the experiment, −40 means 40% lethality, and −100 indicates all cells are dead. […] Growth inhibitions reflect cytostatic activity of the compound as previously shown for Complex 2. In contrast, cell lethality is only evident in melanoma cells, specifically the LOX IMVI and SK-MEL-28 cell lines.

CAK-1 = CAK-1 (Renal Cancer), 10 μM, 48 h
Source text: as §1, §2, §3

TK-10 = TK-10 (Renal Cancer), 10 μM, 48 h
Source text: as §1, §2, §3

SF-295 = SF-295 (CNS Cancer), 10 μM, 48 h
Source text: as §1, §2, §3

NCI-H322M = NCI-H322M (Non-small-cell lung cancer), 10 μM, 48 h
Source text: as §1, §2, §3

HPO-92 = HPO-92 (Non-small-cell lung cancer), 10 μM, 48 h
Source text: as §1, §2, §3

MCF7 = MCF7 (Breast Cancer), 10 μM, 48 h
Source text: as §1, §2, §3

CCRF-CEM = CCRF-CEM (Leukemia), 10 μM, 48 h
Source text: as §1, §2, §3

COLO 205 = COLO 205 (Colon cancer), 10 μM, 48 h
Source text: as §1, §2, §3

A549/ATCC = A549/ATCC (Non-small-cell lung cancer), 10 μM, 48 h
Source text: as §1, §2, §3

SF-268 = SF-268 (CNS Cancer), 10 μM, 48 h
Source text: as §1, §2, §3

OVCAR-3 = OVCAR-3 (Ovarian Cancer), 10 μM, 48 h
Source text: as §1, §2, §3

IGROV1 = IGROV1 (Ovarian Cancer), 10 μM, 48 h
Source text: as §1, §2, §3

MDA-MB-231/ATCC = MDA-MB-231/ATCC (Breast Cancer), 10 μM, 48 h
Source text: as §1, §2, §3

EKVX = EKVX (Non-small-cell lung cancer), 10 μM, 48 h
Source text: as §1, §2, §3

SN12C = SN12C (Renal Cancer), 10 μM, 48 h
Source text: as §1, §2, §3

NCI-H460 = NCI-H460 (Non-small-cell lung cancer), 10 μM, 48 h
Source text: as §1, §2, §3

MALME-3M = MALME-3M (Melanoma), 10 μM, 48 h
Source text: as §1, §2, §3

NCI-H23 = NCI-H23 (Non-small-cell lung cancer), 10 μM, 48 h
Source text: as §1, §2, §3

SK-MEL-5 = SK-MEL-5 (Melanoma), 10 μM, 48 h
Source text: as §1, §2, §3

SF-539 = SF-539 (CNS Cancer), 10 μM, 48 h
Source text: as §1, §2, §3

KM12 = KM12 (Colon cancer), 10 μM, 48 h
Source text: as §1, §2, §3

SNB-75 = SNB-75 (CNS Cancer), 10 μM, 48 h
Source text: as §1, §2, §3

RXF 398 = RXF 398 (Renal Cancer), 10 μM, 48 h
Source text: as §1, §2, §3

RPMI-8226 = RPMI-8226 (Leukemia), 10 μM, 48 h
Source text: as §1, §2, §3

OVCAR-4 = OVCAR-4 (Ovarian Cancer), 10 μM, 48 h
Source text: as §1, §2, §3

BT-549 = BT-549 (Breast Cancer), 10 μM, 48 h
Source text: as §1, §2, §3

MDA-MB-435 = MDA-MB-435 (Melanoma), 10 μM, 48 h
Source text: as §1, §2, §3

For `O=C(O)CCCCCNc1c(F)c(F)c(C2=C3C=CC4=[N+]3[Ga-]35[n]6c2ccc6C(c2c(F)c(F)c(F)c(F)c2F)=c2ccc([n]23)=C(c2c(F)c(F)c(F)c(F)c2F)c2ccc4[n]25)c(F)c1F` (stereo not shown) [Complex 3], the “Growth inhibition, %” value (NCl/ADR-RES) was 52.7%, the “Growth inhibition, %” value (CAK-1) was 71.7% and the “Growth inhibition, %” value (TK-10) was 47.3%. The “Growth inhibition, %” value (SF-295) was 53.2%, the “Growth inhibition, %” value (NCI-H322M) was 32.9% and the “Growth inhibition, %” value (HPO-92) was 81.6%. For the same compound, the “Growth inhibition, %” value (MCF7) was 63.1%, the “Growth inhibition, %” value (CCRF-CEM) was 91.1% and the “Growth inhibition, %” value (COLO 205) was 51.7%. The “Growth inhibition, %” value (A549/ATCC) was 82.7%, the “Growth inhibition, %” value (SF-268) was 65.8% and the “Growth inhibition, %” value (OVCAR-3) was 75.9%. For the same compound, the “Growth inhibition, %” value (IGROV1) was 55.7%, the “Growth inhibition, %” value (MDA-MB-231/ATCC) was 72.5% and the “Growth inhibition, %” value (EKVX) was 59.7%. The “Growth inhibition, %” value (SN12C) was 78.8%, the “Growth inhibition, %” value (NCI-H460) was 94.2% and the “Growth inhibition, %” value (MALME-3M) was 50.4%. For the same compound, the “Growth inhibition, %” value (NCI-H23) was 64.5%, the “Growth inhibition, %” value (SK-MEL-5) was 72.0% and the “Growth inhibition, %” value (SF-539) was 85.3%. The “Growth inhibition, %” value (KM12) was 80.6%, the “Growth inhibition, %” value (SNB-75) was 30.7% and the “Growth inhibition, %” value (RXF 398) was 96.7%. The “Growth inhibition, %” value (RPMI-8226) was 70.2%, the “Growth inhibition, %” value (OVCAR-4) was 59.9% and the “Growth inhibition, %” value (BT-549) was 73.0%. For the same compound, the “Growth inhibition, %” value (MDA-MB-435) was 90.8%.
